The target in this test is T1, Dioclea violacea lectin (DVL) (Macropsychanthus violaceus, UniProt I1SB09).
T1 sequence (I1SB09 1-237): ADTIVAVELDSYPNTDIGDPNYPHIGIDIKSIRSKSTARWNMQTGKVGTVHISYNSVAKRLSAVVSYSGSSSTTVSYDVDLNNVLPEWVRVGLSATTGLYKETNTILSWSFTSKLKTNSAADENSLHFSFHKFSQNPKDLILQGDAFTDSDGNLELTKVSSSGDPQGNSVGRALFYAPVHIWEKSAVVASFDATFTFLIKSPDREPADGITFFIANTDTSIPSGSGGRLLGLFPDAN
As to the kind of experiment: fluorescence microscopy of FITC-lectin binding to fixed Lutzomyia migonei midgut, lectin blocked with sugar. The conditions noted are these: 0.1 M D-mannose, 37 °C, 30 min preincubation; carbohydrate recognition domain; FITC-labelled lectin 100 µg/mL.

Take `OC[C@H]1OC(O)[C@@H](O)[C@@H](O)[C@@H]1O` (stereo partly drawn) [D-mannose]: the “fluorescence microscopy of FITC-lectin binding to fixed Lutzomyia migonei midgut” value was “when the midguts were treated with blocked DVL, a remarkable decrease in the fluorescence pattern”.

(Values after publication PMC4238264, “A Lectin from Dioclea violacea Interacts with Midgut Surface of Lutzomyia migonei, Unlike Its Homologues, Cratylia floribunda Lectin and Canavalia gladiata Lectin” (The Scientific World Journal, 2014).)
